{"source": "patent US4923888A", "about": "“Butenoic acid amides, their salts, and pharmaceutical compositions containing them” (Richter Gedeon Vegyeszeti Gyar RT, priority 1987, dated 1990)", "key": {"[1]": {"test_system": "chronic stomach ulcer", "assay": "acetic acid-induced chronic stomach ulcer model (promoting the healing)", "assay_type": "in vivo, rats", "settings": "for Ulcer index: ± S.E.M", "experimental": "The investigation of (the effect promoting the healing of) the chronic stomach ulcer induced by acetic acid was carried out as follows. In the course of examining the healing-promoting effect, one of the most widely used methods namely, the so-called acetic acid-induced chronic stomach ulcer model was used [Takagi et. al.: Jap. […] The abdominal wall of anaesthetized rats was opened and 50 μl of a 20% acetic acid solution were injected into the stomach wall, then the abdominal wall of the animal was sutured. The treatment by the test compounds was started on day 5 following the surgical operation and continued until day 14 by using the daily doses shown in Table 2. Then, the animals were killed and their stomachs were examined. The extent of ulceration was assessed by measuring the diameter of the ulcer, wherefrom the size of the damaged area could be calculated. For characterizing the degree of the cicatrization, the change in the ulcer index measured in the treated animals was related to the values measured in the untreated (control) animals and expressed as percentage values."}, "[2]": {"test_system": "glandular part of the stomach", "assay": "acid-ethanol test (cytoprotective action, method of A. Robert)", "assay_type": "in vivo, rats", "settings": "oral; for ED50: Rattus norvegicus, acid-ethanol test, starved rats, read-out: Cytoprotective effect ED50", "source_text": "Starved rats were given absolute ethanol containing concentrated hydrochloric acid which induced longitudinal bleedings in the glandular part of the stomach within a short time. This damaging effect is prevented by cytoprotective substances.\nThe oral ED50 values of some compounds according to the invention, which were examined in the acid-ethanol test, are shown in Table 1."}, "[3]": {"assay": "oral toxicity", "assay_type": "in vivo"}, "[4]": {"settings": "50 × 10 mg/kg/day p.o., Table 3"}, "[5]": {"settings": "10 × 10 mg/kg/day p.o., Table 2"}, "[6]": {"settings": "10 × 10 mg/kg/day p.o., P <0.01 vs control (C only)"}}}
{"compound": "NC[C@H]1CC[C@H](C(=O)Oc2ccc(CCC(=O)O)cc2)CC1", "note": "[Cetraxate, reference compound]", "values": [{"measurement": "Change in the ulcer index related to the control (promotion of the healing)", "setting": "[1]; 150 × 10 mg/kg/day p.o., Table 3", "result": 49, "unit": "%"}]}
{"compound": "CN/C(=N/CCSCc1nc[nH]c1C)NC#N", "note": "[Cimetidine, reference compound]", "values": [{"measurement": "Change in the ulcer index related to the control (promotion of the healing)", "setting": "[1]; [4]", "result": 17, "unit": "%"}]}
{"compound": "CN1CCN(CC(=O)N2c3ccccc3C(=O)Nc3cccnc32)CC1", "note": "[Pirenzepine, reference compound]", "values": [{"measurement": "Change in the ulcer index related to the control (promotion of the healing)", "setting": "[1]; 12 × 10 mg/kg/day p.o., Table 3", "result": 13, "unit": "%"}]}
{"compound": "C[S+](C)CCC(N)C(=O)O", "note": "(stereo not shown) [MMSC, Methylmethionine sulfonium chloride, reference compound]", "values": [{"measurement": "Change in the ulcer index related to the control (promotion of the healing)", "setting": "[1]; [4]", "result": 59, "unit": "%"}]}
{"compound": "CC(=O)c1ccc2c(c1)C(=O)C1(CC1)O2", "note": "[Spizofuron, reference compound]", "values": [{"measurement": "Change in the ulcer index related to the control (promotion of the healing)", "setting": "[1]; [4]", "result": 11, "unit": "%"}]}
{"compound": "CCOC(=O)CC(NC(=O)/C=C/C(=O)c1ccccc1)C(=O)OCC", "note": "(racemic) [B, diethyl N-[4-oxo-4-phenyl-2(E)-butenoyl]-(RS)-aspartate]", "values": [{"measurement": "ED50", "setting": "[2]", "result": 2.6, "unit": "mg/kg"}, {"measurement": "Change in the ulcer index related to the control (promotion of the healing)", "setting": "[1]; [5]", "result": 34, "unit": "%"}, {"measurement": "Ulcer index", "setting": "[1]; [6]", "result": "7.7 ± 2.8", "unit": "mm^2 /stomach"}, {"measurement": "Change in the ulcer index related to the control (promotion of the healing)", "setting": "[1]; 30 × 10 mg/kg/day p.o., Table 2", "result": 63, "unit": "%"}, {"measurement": "Ulcer index", "setting": "[1]; 30 × 10 mg/kg/day p.o., P <0.01 vs control (B)", "result": "4.2 ± 1.8", "unit": "mm^2 /stomach"}, {"measurement": "difference between the healing-promoting effects of the R and RS modifications", "setting": "[1]; statement on Table 2", "result": "highly significant difference"}]}
{"compound": "CCOC(=O)C[C@@H](NC(=O)/C=C/C(=O)c1ccccc1)C(=O)OCC", "note": "[C, diethyl N-[4-oxo-4-phenyl-2(E)-butenoyl]-(R)-aspartate]", "values": [{"measurement": "ED50", "setting": "[2]", "result": 1.7, "unit": "mg/kg"}, {"measurement": "cytoprotective test, comparison in words", "setting": "[2]; statement on Table 1", "result": "most effective"}, {"measurement": "healing of the ulcer accelerated", "setting": "[1]; 3 mg/kg oral dose, statement on Table 2", "result": 57, "unit": "%"}, {"measurement": "Change in the ulcer index related to the control (delaying of the healing)", "setting": "[1]; 1 × 10 mg/kg/day p.o., Table 2", "result": 13, "unit": "%"}, {"measurement": "Ulcer index", "setting": "[1]; 1 × 10 mg/kg/day p.o.", "result": "13.1 ± 3.5", "unit": "mm^2 /stomach"}, {"measurement": "Change in the ulcer index related to the control (promotion of the healing)", "setting": "[1]; 3 × 10 mg/kg/day p.o., Table 2", "result": 57, "unit": "%"}, {"measurement": "Ulcer index", "setting": "[1]; 3 × 10 mg/kg/day p.o., P <0.01 vs control", "result": "5.0 ± 1.2", "unit": "mm^2 /stomach"}, {"measurement": "Change in the ulcer index related to the control (promotion of the healing)", "setting": "[1]; [5]", "result": 77, "unit": "%"}, {"measurement": "Ulcer index", "setting": "[1]; [6]", "result": "2.7 ± 1.1", "unit": "mm^2 /stomach"}, {"measurement": "healing-promoting effect compared with reference drugs", "setting": "[1]; R isomer vs reference drugs of Table 3", "result": "greatly exceeds that of the reference drugs"}, {"measurement": "difference between the healing-promoting effects of the R and RS modifications", "setting": "[1]; statement on Table 2", "result": "highly significant difference"}, {"measurement": "toxicity, oral dose of 1200 mg/kg", "setting": "[3]", "result": "not toxic"}]}
{"compound": "Sucralfate [reference compound]", "values": [{"measurement": "Change in the ulcer index related to the control (promotion of the healing)", "setting": "[1]; 500 × 10 mg/kg/day p.o., Table 3", "result": 55, "unit": "%"}]}
{"compound": "CCOC(=O)C[C@H](NC(=O)/C=C/C(=O)c1ccccc1)C(=O)OCC", "note": "[A, diethyl N-[4-oxo-4-phenyl-2(E)-butenoyl]-(S)-aspartate]", "values": [{"measurement": "ED50", "setting": "[2]", "result": 3.8, "unit": "mg/kg"}, {"measurement": "healing of the ulcer, result in words", "setting": "[1]; 40 mg/kg oral dose, statement on Table 2", "result": "not promoted"}, {"measurement": "Change in the ulcer index related to the control (delaying of the healing)", "setting": "[1]; 40 × 10 mg/kg/day p.o., Table 2", "result": 11, "unit": "%"}, {"measurement": "Ulcer index", "setting": "[1]; 40 × 10 mg/kg/day p.o.", "result": "13.4 ± 2.1", "unit": "mm^2 /stomach"}]}
